Test results as given in patent US6432922B1 (Corvas International, Inc., priority 1998, dated 2002).
Where two headings read alike, the source gives them in different places. Non-standard residues stand in square brackets, D forms with d. Residues, ends and D or L forms follow the SMILES beside them. *: point of attachment. cisHyp = O=C(O)[C@@H]1C[C@H](O)CN1; AllylGly = C=CC[C@H](N)C(=O)O; d(hSer) = N[C@H](CCO)C(=O)O; ΔPro = O=C(O)[C@@H]1C=CCN1; Isovaleryl = CC(C)CC(=O)*; dDap = NC[C@@H](N)C(=O)O; Cbz = O=C(OCc1ccccc1)*; Moc = COC(=O)*

Key:
Human rt-PA (Activase) = target: T1, Human rt-PA (Activase) (Homo sapiens, UniProt P00750); assay: Recombinant tissue plasminogen activator (rt-PA) chromogenic assay; type: biochemical; details: 30 minute preincubation, HBSA buffer; read-out: tPA IC50
T1 construct: purchased Genentech Inc
Experimental: rt-PA catalytic activity was determined using the substrate, Pefachrome t-PA (CH3SO2-D-hexahydrotyrosine-glycyl-L-arginine-p-nitroaniline, obtained from Pentap harm Ltd.). The substrate was made up in deionized water followed by dilution in HBSA prior to the assay in which the final concentration was 500 micromolar (about 3-times Km). Human rt-PA (Activase®) was obtained from Genentech Inc. The enzyme was reconstituted in deionized water and diluted into HBSA prior to the assay in which the final concentration was 1.0 nM.

human plasmin = target: T2, human plasmin (Homo sapiens, UniProt P00747); assay: Plasmin chromogenic substrate (S-2366) assay; type: biochemical; details: 30 minute preincubation, HBSA buffer
T2 construct: purchased Enzyme Research Laboratories, Inc
Experimental: The substrate was made up in deionized water followed by dilution in HBSA prior to the assay in which the final concentration was 300 micromolar (about 2.5-times Km). Purified human plasmin was obtained from Enzyme Research Laboratories, Inc. The enzyme was diluted into HBSA prior to assay in which the final concentration was 1.0 nM.

Urokinase (Abbokinase) = Urokinase (Abbokinase) (Homo sapiens, UniProt P00749); assay: Urokinase chromogenic substrate (S-2444) IC50 assay
Experimental: The buffer used for all assays was HBSA (10 mM HEPES, pH 7.5, 150 mM sodium chloride, 0.1% bovine serum albumin).
The initial velocity of chromogenic substrate hydrolysis was measured by the change in absorbance at 405 nm using a Thermo Max® Kinetic Microplate Reader over a 5 minute period in which less than 5% of the added substrate was utilized.
The assay buffer was HBS (10mM HEPES, 150mM sodium chloride pH 7.4) with 0.1% BSA.

[1] = tested on: bFGF-induced angiogenesis on the CAM of chick embryos; assay: Chicken CAM model of bFGF-induced angiogenesis; type: in vivo; details: for Angiogenic Index / # of Blood Vessel Branch Points: bFGF; for Angiogenic Index: difference in branch points vs untreated control embryos; for # of Blood Vessel Branch Points: single administration
Excerpt: A test compound can either be added to the filter disc that contains the angiogenesis inducer, be placed directly on the membrane or be administered systemically. The extent of new blood vessel formation in the presence and/or absence of test compound can be compared using this model. The formation of fewer new blood vessels in the presence of a test compound would be indicative of anti-angiogenesis activity.
The chicken CAM (chick embryo chorioallantoic membrane) model, a standard angiogenesis assay, was used to evaluate the ability of Compound 1 to inhibit angiogenesis. This model is an established model for evaluation of activity of a test compound to affect formulation of new blood vessels.
A filter disc saturated with a 0.5 μg/ml solution of basic fibroblast growth factor (bFGF) was placed on the CAM of 10 day old chick embryos to induce angiogenesis. Twenty four hours later, 0 to 1 μg of Compound 1, in a total volume of 100 μl of sterile PBS, was injected intravenously into the embryo. Approximately 48 hours later, the embryos were sacrificed and the filter discs and surrounding CAM tissue were excised for analysis. Angiogenesis was quantitated by counting the number of blood vessel branch points within the confined region of the filter [Brooks, P.C., et al, Methods in Molecular Biology 120:257-269 (1999)]. The angiogenic index is defined as the difference in the number of blood vessel branch points between an experimental group and the untreated, control embryos. Each experimental group contained 8 to 10 chicken embryos. A single administration of 1 μg of Compound 1 inhibited angiogenesis by 92% in this experiment.

[2] = tested on: human fibrosarcoma cells (HT 1080); assay: Growth of human HT1080 tumor cells in chick embryo model; type: in vivo, chicken; details: for Tumor wet weight: 7 days incubation
Experimental: A chicken embryo model was used to evaluate the activity of Compound 1 to inhibit the growth of human tumor cells in vivo. A single cell suspension of human fibrosarcoma cells (HT 1080), containing 4×10^5 cells in a total volume of 40 μl, was applied to 10 day old chick embryos as described by Brooks, et al (“Brooks, P.C., et al, “Integrin αvβ3 Antagonists Promote Tumor Regression by Inducing Apoptosis of Angiogenic Blood Vessels”, Cell 79:1157-1164 (1994)). Twenty-four hours later 0 to 10 μg of Compound 1 was injected intravenously into the embryos. Following this single administration of compound, control and treated embryos were incubated for a total of 7 days and then sacrificed. Tumors were excised, trimmed free of surrounding CAM tissue, and weighed. Each experimental group contained 10 to 12 chicken embryos. A single dose of 10 μg of Compound 1 reduced tumor weight by approximately 65%.

T1 sequence (P00750 36-562): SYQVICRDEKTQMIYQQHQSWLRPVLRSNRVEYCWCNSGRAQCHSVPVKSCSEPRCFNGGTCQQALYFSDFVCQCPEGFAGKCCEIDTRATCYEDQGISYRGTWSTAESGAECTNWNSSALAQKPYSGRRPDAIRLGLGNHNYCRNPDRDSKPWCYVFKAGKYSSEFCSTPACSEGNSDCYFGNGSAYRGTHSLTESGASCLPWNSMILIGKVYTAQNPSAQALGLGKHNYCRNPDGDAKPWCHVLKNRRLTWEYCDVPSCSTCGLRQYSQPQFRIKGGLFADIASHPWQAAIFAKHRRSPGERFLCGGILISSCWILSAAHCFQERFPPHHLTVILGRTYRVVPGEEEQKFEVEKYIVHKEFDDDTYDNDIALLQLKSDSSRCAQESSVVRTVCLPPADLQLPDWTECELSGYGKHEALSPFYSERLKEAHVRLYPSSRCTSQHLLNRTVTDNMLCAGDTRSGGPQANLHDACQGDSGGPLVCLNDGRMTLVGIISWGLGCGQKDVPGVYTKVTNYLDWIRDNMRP
T2 sequence (P00747 581-810 limits assumed): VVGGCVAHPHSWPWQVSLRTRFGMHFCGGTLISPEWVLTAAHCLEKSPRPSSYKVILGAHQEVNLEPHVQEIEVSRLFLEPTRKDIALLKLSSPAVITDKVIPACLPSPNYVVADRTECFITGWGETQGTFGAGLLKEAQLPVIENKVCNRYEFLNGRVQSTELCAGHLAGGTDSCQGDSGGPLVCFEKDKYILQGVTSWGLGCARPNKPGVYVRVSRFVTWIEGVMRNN
T2 sequence (P00747 97-580 partner limits assumed): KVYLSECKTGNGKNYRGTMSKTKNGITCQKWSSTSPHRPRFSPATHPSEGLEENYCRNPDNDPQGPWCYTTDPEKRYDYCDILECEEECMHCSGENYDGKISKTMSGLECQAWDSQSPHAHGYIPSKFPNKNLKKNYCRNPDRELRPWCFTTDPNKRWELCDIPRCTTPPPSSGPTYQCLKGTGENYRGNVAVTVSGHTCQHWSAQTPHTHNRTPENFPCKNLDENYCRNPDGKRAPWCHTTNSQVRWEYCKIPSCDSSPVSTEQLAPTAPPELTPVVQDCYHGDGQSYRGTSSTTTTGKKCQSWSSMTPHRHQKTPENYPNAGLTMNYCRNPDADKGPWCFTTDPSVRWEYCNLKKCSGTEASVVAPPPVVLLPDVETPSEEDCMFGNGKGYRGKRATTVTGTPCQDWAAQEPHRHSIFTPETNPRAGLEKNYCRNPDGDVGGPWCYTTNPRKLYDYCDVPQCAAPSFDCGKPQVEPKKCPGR

Row | Structure (SMILES) | IC50 (Human rt-PA (Activase)) [nM] | IC50 (human plasmin) [nM] | IC50 (Urokinase (Abbokinase)) [nM] | further results
1 | C[C@H](NC(=O)[C@@H](CO)NC(=O)CCC1CCCCC1)C(=O)N[C@H](C=O)CCCNC(=N)N [Compound 35, 3-cyclohexylpropionyl-D-seryl-alanyl-argininal] | > 2500 | > 2500 | 250 to 2500 | –
2 | N=C(N)NCCC[C@@H](C=O)NC(=O)[C@@H]1CCCN1C(=O)[C@@H](CCO)NC(=O)OCc1ccccc1 [Compound 27, benzyloxycarbonyl-D-homoseryl-prolyl-argininal] (Cbz-[d(hSer)]-Pro-Arg-aldehyde) | > 2500 | < 100 | 100 to 250 | –
3 | C[C@H](NC(=O)[C@@H](CO)NC(=O)NCC1CCCCC1)C(=O)N[C@H](C=O)CCCNC(=N)N [Compound 37, cyclohexylmethylazacarbonyl-D-seryl-alanyl-argininal] | > 2500 | > 2500 | 100 to 250 | –
4 | C[C@H](NC(=O)[C@@H](CO)NS(=O)(=O)c1ccccc1)C(=O)N[C@H](C=O)CCCN=C(N)N [Compound 28, Benzenesufonyl-D-Ser-L-Ala-L-Arg-al] | > 2500 | 250 to 2500 | – | IC50 (Urokinase (Abbokinase); read-out: uPA IC50, 30 minute preincubation, HBSA buffer): < 100 nM
5 | C[C@H](NC(=O)[C@@H](CO)NC(=O)OCc1ccccc1)C(=O)N[C@H](C=O)CCCNC(=N)N [Compound 2, Benzyloxycarbonyl-D-seryl-alanyl-argininal] (Cbz-[dS]-Ala-Arg-aldehyde) | 250 to 2500 | 250 to 2500 | < 100 | –
6 | CC(C)CC(=O)N[C@H](CO)C(=O)N[C@@H](C)C(=O)N[C@H](C=O)CCCNC(=N)N [Compound 39, isovaleryl-D-seryl-alanyl-argininal] (Isovaleryl-[dS]-Ala-Arg-aldehyde) | > 2500 | > 2500 | 250 to 2500 | –
7 | CC[C@@H](NC(=O)OCc1ccccc1)C(=O)N[C@@H](C)C(=O)NC(C=O)CCCNC(=N)N (stereo partly shown) [Compound 44] | > 2500 | 250 to 2500 | 250 to 2500 | –
8 | C[C@H](NC(=O)[C@@H](CO)NC(=O)OCC1CCCCC1)C(=O)N[C@H](C=O)CCCNC(=N)N [Compound 36, cyclohexylmethyloxycarbonyl-D-seryl-alanyl-argininal] | > 2500 | 250 to 2500 | < 100 | –
9 | CC(C)COC(=O)N[C@H](CO)C(=O)N[C@@H](C)C(=O)N[C@H](C=O)CCCNC(=N)N [Compound 1, Isobutyloxycarbonyl-D-seryl-L-alanyl-argininal] | > 2500 | 250 to 2500 | < 100 | Angiogenic Index ([1]; 0.001 μg Compound 1): 22; # of Blood Vessel Branch Points ([1]; 0.001 μg Compound 1 intravenously): 35 +/− 5; Angiogenic Index ([1]; 0.01 μg Compound 1): 8; # of Blood Vessel Branch Points ([1]; 0.01 μg Compound 1 intravenously): 21 +/− 5; Angiogenic Index ([1]; 1.0 μg Compound 1): 2; # of Blood Vessel Branch Points ([1]; 1.0 μg Compound 1 intravenously): 15 +/− 1; inhibition of angiogenesis ([1]; single administration of 1 μg, intravenously): 92%; Tumor wet weight ([2]; 1 μg single intravenous dose): 174 ± 25 mg; Tumor wet weight ([2]; 10 μg single intravenous dose): 97 ± 15 mg; reduction of tumor weight ([2]; single dose of 10 μg): approximately 65%

Continued, in another order:

Row | IC50 (Human rt-PA (Activase)) [nM] | IC50 (human plasmin) [nM] | IC50 (Urokinase (Abbokinase)) [nM] | Structure (SMILES) | further results
10 | > 2500 | 100 to 250 | 100 to 250 | C[C@H](NC(=O)[C@@H](CNC(=O)OCc1ccccc1)NC(=O)OCc1ccccc1)C(=O)N[C@H](C=O)CCCNC(=N)N [Compound 42, N-α-N-β-dibenzyloxycarbonyl-D-2,3-diaminopropionyl-alanyl-argininal] (Cbz-[dDap](Cbz)-Ala-Arg-aldehyde) | –
11 | > 2500 | 250 to 2500 | 100 to 250 | C=CC[C@H](NC(=O)[C@@H](CO)NC(=O)OCc1ccccc1)C(=O)N[C@H](C=O)CCCNC(=N)N [Compound 52, benzyloxycarbonyl-D-seryl-L-allylglycyl-argininal] (Cbz-[dS]-[AllylGly]-Arg-aldehyde) | –
12 | > 2500 | 250 to 2500 | < 100 | N=C(N)NCCC[C@@H](C=O)NC(=O)[C@@H]1C[C@H](O)CN1C(=O)[C@@H](CO)NC(=O)OCc1ccccc1 [Compound 49, benzyloxycarbonyl-D-seryl-L-cis-4-hydroxyprolyl-argininal] (Cbz-[dS]-[cisHyp]-Arg-aldehyde) | –
13 | > 2500 | 250 to 2500 | 250 to 2500 | COC(=O)NC[C@@H](NC(=O)OCc1ccccc1)C(=O)N[C@@H](C)C(=O)N[C@H](C=O)CCCNC(=N)N [Compound 43, N-α-benzyloxycarbonyl-N-β-methyloxycarbonyl-D-2,3-diaminopropionyl-alanyl-argininal] (Cbz-[dDap](Moc)-Ala-Arg-aldehyde) | –
14 | > 2500 | 250 to 2500 | < 100 | C[C@H](NC(=O)[C@@H](CO)NS(=O)(=O)CCCc1ccccc1)C(=O)N[C@H](C=O)CCCNC(=N)N [Compound 48, 3-phenylpropylsulfonyl-D-seryl-alanyl-argininal] | –
15 | > 2500 | > 2500 | < 100 | CC(C)OC(=O)N[C@H](CO)C(=O)N[C@@H](C)C(=O)N[C@H](C=O)CCCNC(=N)N [Compound 40, isopropyloxycarbonyl-D-seryl-alanyl-argininal] | –
16 | > 2500 | 100 to 250 | < 100 | N=C(N)NCCC[C@@H](C=O)NC(=O)[C@@H]1C=CCN1C(=O)[C@@H](CO)NC(=O)OCc1ccccc1 [Compound 50, benzyloxycarbonyl-D-seryl-L-3,4-dehydroprolyl-argininal] (Cbz-[dS]-[ΔPro]-Arg-aldehyde) | –
17 | > 2500 | 250 to 2500 | < 100 | C[C@H](NC(=O)[C@@H](CO)NS(=O)(=O)/C=C/c1ccccc1)C(=O)N[C@H](C=O)CCCNC(=N)N [Compound 53, trans-β-Styrenesulfonyl-D-seryl-L-alanyl-argininal] | –
